Molecular target: T1, aryl hydrocarbon receptor (AHR) (Homo sapiens, UniProt P35869)
T1 construct: human AHR in liver cytosol of mice expressing human AHR; also HepG2 (40/6) cells
T1 sequence (P35869 11-848): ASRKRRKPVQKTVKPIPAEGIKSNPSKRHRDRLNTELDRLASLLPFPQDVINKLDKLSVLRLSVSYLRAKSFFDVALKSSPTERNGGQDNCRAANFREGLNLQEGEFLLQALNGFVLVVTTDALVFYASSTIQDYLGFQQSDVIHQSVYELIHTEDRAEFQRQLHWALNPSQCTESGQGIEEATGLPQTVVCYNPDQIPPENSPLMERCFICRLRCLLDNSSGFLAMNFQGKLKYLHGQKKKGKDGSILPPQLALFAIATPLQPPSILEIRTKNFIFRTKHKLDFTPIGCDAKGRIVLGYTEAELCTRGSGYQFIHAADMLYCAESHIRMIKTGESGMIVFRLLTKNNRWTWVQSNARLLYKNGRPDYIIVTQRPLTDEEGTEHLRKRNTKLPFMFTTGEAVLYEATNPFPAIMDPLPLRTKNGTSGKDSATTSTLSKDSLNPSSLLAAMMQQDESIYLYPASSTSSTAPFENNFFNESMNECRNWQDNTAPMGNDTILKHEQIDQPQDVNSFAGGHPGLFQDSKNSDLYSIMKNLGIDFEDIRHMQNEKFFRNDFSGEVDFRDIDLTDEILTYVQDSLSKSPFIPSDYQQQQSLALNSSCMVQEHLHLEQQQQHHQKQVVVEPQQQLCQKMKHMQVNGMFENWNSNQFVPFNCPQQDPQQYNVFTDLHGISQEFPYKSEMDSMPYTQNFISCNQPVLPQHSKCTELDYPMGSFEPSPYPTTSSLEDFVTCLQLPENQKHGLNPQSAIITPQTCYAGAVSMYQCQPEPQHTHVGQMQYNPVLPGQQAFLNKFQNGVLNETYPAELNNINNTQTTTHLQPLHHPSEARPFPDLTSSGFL
Assay: competition with […] photoaffinity ligand (PAL) in human AHR-expressing hepatic cytosol
Assay type: binding

## O=c1oc2cc(O)ccc2c2ccc(O)cc12 [UroA, Urolithin A]
  IC50: 800 nM
